These results are taken from patent US8188064B2, “Vitamin D analogs for obesity prevention and treatment” (Wisconsin Alumni Research Foundation, priority 2003, dated 2012).

The structures appear in SMILES notation. “Also recorded” adds a separate entry of the source.

Data set [1] addresses T1, full-length recombinant rat vitamin D receptor (Rattus norvegicus, UniProt P13053).
T1 construct: Full-length recombinant rat receptor was expressed in E. coli; histidine tag (C); made in house; host or cells: E. coli BL21(DE3) Codon Plus RIL
T1 sequence (P13053 1-423): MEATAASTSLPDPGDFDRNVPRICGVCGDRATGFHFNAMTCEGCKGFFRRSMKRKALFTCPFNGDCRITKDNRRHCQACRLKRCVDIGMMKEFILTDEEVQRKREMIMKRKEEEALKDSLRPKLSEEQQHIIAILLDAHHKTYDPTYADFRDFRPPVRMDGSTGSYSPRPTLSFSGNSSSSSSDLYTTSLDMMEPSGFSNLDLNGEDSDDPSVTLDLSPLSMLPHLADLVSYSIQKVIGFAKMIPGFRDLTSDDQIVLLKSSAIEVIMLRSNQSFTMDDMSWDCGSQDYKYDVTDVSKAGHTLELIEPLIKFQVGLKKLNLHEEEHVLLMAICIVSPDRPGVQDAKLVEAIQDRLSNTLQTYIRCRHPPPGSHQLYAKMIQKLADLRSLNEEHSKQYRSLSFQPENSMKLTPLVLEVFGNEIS
Kind of data set: Vitamin D receptor binding (competition with 3H-1,25(OH)2D3). The settings on record: for binding to the vitamin D receptor, compared to 1α,25(OH)2D3: result in words, competition for tritiated hormone binding. As to the method: Full-length recombinant rat receptor was expressed in E. coli BL21(DE3) Codon Plus RIL cells and purified to homogeneity using two different column chromatography systems. The first system was a nickel affinity resin that utilizes the C-terminal histidine tag on this protein. The protein that was eluted from this resin was further purified using ion exchange chromatography (S-Sepharose Fast Flow). Aliquots of the purified protein were quick frozen in liquid nitrogen and stored at −80° C. until use. For use in binding assays, the protein was diluted in TEDK50 (50 mM Tris, 1.5 mM EDTA, pH 7.4, 5 mM DTT, 150 mM KCl) with 0.1% Chaps detergent. The receptor protein and ligand concentration was optimized such that no more than 20% of the added radiolabeled ligand was bound to the receptor.
Unlabeled ligands were dissolved in ethanol and the concentrations determined using UV spectrophotometry (1,25(OH)2D3: molar extinction coefficient=18,200 and λmax=265 nm; Analogs: molar extinction coefficient=42,000 and λmax=252 nm). Radiolabeled ligand (^3H-1,25(OH)2D3, ˜159 Ci/mmole) was added in ethanol at a final concentration of 1 nM.
Radiolabeled and unlabeled ligands were added to 100 mcl of the diluted protein at a final ethanol concentration of ≦10%, mixed and incubated overnight on ice to reach binding equilibrium. The following day, 100 mcl of hydroxylapatite slurry (50%) was added to each tube and mixed at 10-minute intervals for 30 minutes. The hydroxylapaptite was collected by centrifugation and then washed three times with Tris-EDTA buffer (50 mM Tris, 1.5 mM EDTA, pH 7.4) containing 0.5% Titron X-100. After the final wash, the pellets were transferred to scintillation vials containing 4 ml of Biosafe II scintillation cocktail, mixed and placed in a scintillation counter. Total binding was determined from the tubes containing only radiolabeled ligand.

Data set [2] can be described thus: Intestinal calcium transport (everted gut sac). Format: in vivo. The following applies: result in words; vitamin D deficient rat model, compared to 1α,25(OH)2D3. As to the method:
(§1) Male, weanling Sprague-Dawley rats were placed on Diet 11 (0.47% Ca) diet+AEK for one week followed by Diet 11 (0.02% Ca)+AEK for 3 weeks. The rats were then switched to a diet containing 0.47% Ca for one week followed by two weeks on a diet containing 0.02% Ca. Dose administration began during the last week on 0.02% calcium diet. Four consecutive ip doses were given approximately 24 hours apart. Twenty-four hours after the last dose, blood was collected from the severed neck and the concentration of serum calcium determined as a measure of bone calcium mobilization. The first 10 cm of the intestine was also collected for intestinal calcium transport analysis using the everted gut sac method.

A short description of data set [3]: Bone calcium mobilization (serum calcium on low calcium diet). The data set is classed as in vivo, rat. The settings on record: for bone calcium mobilization activity: result in words, vitamin D deficient rat model, compared to 1α,25(OH)2D3. As to the method: as §1
Data set [4] is described as follows: Hypercalcemia / serum calcium analysis. Format: in vivo, rat.
Data set [5] relates to 3T3-L1 cells. Kind of data set: Inhibition of 3T3-L1 differentiation into mature adipocytes (Oil-Red-O staining). The following applies: for inhibition of differentiation of 3T3-L1 cells into mature adipocytes (Oil-Red-O staining): result in words, MDI-treated cells, staining at day 10; for inhibition of differentiation of MDI-treated 3T3-L1 cells (oil-red-O staining): tested at 1×10^−8.5 M. Format: cell-based, murine. As to the method: Various 19-nor vitamin D analogs were or are tested and found to inhibit the differentiation of preadipocytes into mature adipocytes, to reduce body fat, to inhibit an increase in PPARγ, C/EBPα, and/or SCD-1 gene transcription and to be useful in treating and preventing obesity both in vivo and in vitro. The undifferentiated preadipocyte 3T3-L1 subline, a derivative of the original mouse fibroblast cell line, is one of the most accepted models for investigating the adipogenesis process and was used for the analysis. Two days after reaching confluence, 3T3-L1 cells can be induced to differentiate into adipocytes (see Mackall, J. C. et al. J. Biol. Chem., 251(20), 6462-6464 (1976)) with the addition of a cAMP phosphodiesterase inhibitor, dexamethasone (a glucocortoid), and insulin. […] The induction of PPARγ and C/EBPα is required for adipocyte differentiation. […] SCD-1 is an enzyme found in adipocytes that converts saturated fatty acids (C16 and C18) to their monounsaturated forms (C16:1 and C18:1). The deposition of triglyceride can also be detected as early as 3 days, and by the 7th to 14th days post-confluence, greater than 80% of the cells in the monolayer stain positively with Oil-red-O.

Data set [6] relates to SCD-1 mRNA. Kind of data set: Inhibition of SCD-1 mRNA induction in 3T3-L1 cells (RT-PCR). Format: cell-based, murine. The settings on record: for inhibition of SCD-1 mRNA induction: result in words, MDI-treated 3T3-L1 cells; for inhibition of SCD1 mRNA induction: tested at 1×10^−8.5 M. The text has this: Chomczynski, P. et al., Anal. […] NO: 4)).
Data set [7] relates to Human promyelocytic leukemia (HL60) cells. Kind of data set: HL-60 differentiation (nitro blue tetrazolium reduction). The data set is classed as cell-based. The following applies: for differentiation of HL-60 cells, compared to 1α,25(OH)2D3: result in words. As to the method: The study drugs were dissolved in ethanol and the concentrations determined using UV spectrophotometry. Serial dilutions were prepared so that a range of drug concentrations could be tested without changing the final concentration of ethanol (≦0.2%) present in the cell cultures.
Human promyelocytic leukemia (HL60) cells were grown in RPMI-1640 medium containing 10% fetal bovine serum. The cells were incubated at 37° C. in the presence of 5% CO2.
HL60 cells were plated at 1.2×10^5 cells/ml. Eighteen hours after plating, cells in duplicate were treated with drug. Four days later, the cells were harvested and a nitro blue tetrazolium reduction assay was performed (Collins et al., 1979; J. Exp. Med. 149:969-974). The percentage of differentiated cells was determined by counting a total of 200 cells and recording the number that contained intracellular black-blue formazan deposits. Verification of differentiation to monocytic cells was determined by measuring phagocytic activity (data not shown).

Data set [8] relates to 24-hydroxylase (24Ohase) gene promoter in ROS 17/2.8 (bone) cells. Kind of data set: In vitro transcription assay (luciferase reporter). The data set is classed as cell-based. The following applies: result in words. As to the method:
Transcription activity was measured in ROS 17/2.8 (bone) cells that were stably transfected with a 24-hydroxylase (24Ohase) gene promoter upstream of a luciferase reporter gene (Arbour et al., 1998). Cells were given a range of doses. Sixteen hours after dosing the cells were harvested and luciferase activities were measured using a luminometer. RLU=relative luciferase units.
In general terms: A reporter such as luciferase makes a cellular process visible.

Data set [9] concerns parathyroid hormone (PTH). Kind of data set: PTH suppression (serum PTH). Format: in vivo, rat. The following applies: result in words; normal/adult rats. As to the method:
Adult, female Sprague-Dawley rats were obtained from Harlan (Madison, Wis.).
Upon receipt, the animals were identified by individual tail marks. Animals were housed in suspended, stainless steel, wire-bottom cages. Each cage contained one animal. The animal rooms were maintained at a temperature of 68 to 72° F. and a relative humidity of 25 to 75%. The holding rooms were set to provide 12 hours of light per day. Water and a purified rodent diet (Suda et al., Purified Rodent Diet-Diet 11) containing […] 0.3% phosphorus and fat soluble vitamins A, D, E and K were provided ad libitum.
Animals were randomly assigned to treatment groups (5 animals/group). All doses were administered intraperitoneally in 100 microliters of propylene glycol. Four to seven consecutive doses were given approximately 24 hours apart. Dosing was initiated after the animals had been allowed to acclimate for at least one week.
Both control and test articles were administered by intraperitoneal injection in 100 microliters for 4-7 consecutive days spaced approximately 24 hours apart. 1,25(OH)2D3 was given for 4 consecutive days, whereas, the test drugs were given for 7 consecutive days.
Twenty-four hours after the final dose, blood was collected from the tail artery and the concentration of bioactive serum PTH was measured using the rat BioActive Intact PTH ELISA Kit from Immutopics, Inc. (San Clemente, Calif.).

As to `C=C1[C@H](O)CC(=C/C=C2\CCC[C@]3(C)[C@@H](C(C)C)CC[C@@H]23)C[C@H]1O` [2-MP], in [1], the “binding to the vitamin D receptor, compared to 1α,25(OH)2D3” value (from here on “binding … compared to 1α,25(OH)2D3”) is given as “as or nearly effective as calcitriol”. Further, in data set [2], the “intestinal calcium transport activity” value is “little, if any, activity”. Besides, in data set [3], the “bone calcium mobilization activity” value was “little, if any, activity”. Moreover, the “increase in serum calcium” value in [4] (normal vitamin D sufficient rats, very high oral doses) was “without producing an increase in serum calcium”. Further, in data set [5], the “inhibition of differentiation of 3T3-L1 cells into mature adipocytes (Oil-Red-O staining)” value is given as “nearly as potent as the native hormone” and the “inhibition of differentiation of MDI-treated 3T3-L1 cells (oil-red-O staining)” value is on record as “active”. In addition, the “inhibition of differentiation of 3T3-L1 cells into mature adipocytes (Oil-Red-O staining)” value in [5] (listed as 2MP) was “still active”. In data set [6], the “inhibition of SCD-1 mRNA induction” value is listed as “nearly as potent as the native hormone” and the “inhibition of SCD1 mRNA induction” value is reported as “active”. In [6] (listed as 2MP), the “inhibition of SCD-1 mRNA induction” value is given as “still active”.

With `C=C1[C@H](O)CC(=C/C=C2\CCC[C@]3(C)[C@@H]([C@@H](C)CCC)CC[C@@H]23)C[C@H]1O` [2MtrisP], the “binding … compared to 1α,25(OH)2D3” value in data set [1] is on record as “almost equal to the native hormone; also recorded: as or nearly effective as calcitriol”. For the same compound, the “differentiation of HL-60 cells, compared to 1α,25(OH)2D3” value in data set [7] is “equal in activity”. Further, the “transcriptional activity in bone cells, compared to 1α,25(OH)2D3” value in data set [8] was “within one order of magnitude”. Further, in data set [2], the “intestinal calcium transport activity” value was “some ability to elevate intestinal calcium transport; also recorded: less activity”. Moreover, the “bone calcium mobilization activity” value in data set [3] is reported as “very little bone calcium mobilization activity”. The “bone calcium mobilizing activity” value in [3] (very high dose of 2340 pmol/day) was “little bone calcium mobilizing activity”. Further, the “suppression of parathyroid hormone (PTH)” value in data set [9] is listed as “remarkably effective”. Moreover, the serum calcium concentrations entry in data set [4] (adult rats, PTH suppression study) is listed as “not raising serum calcium concentrations”. Moreover, the “inhibition of differentiation of 3T3-L1 cells into mature adipocytes (Oil-Red-O staining)” value in data set [5] is reported as “increased slightly”; in [5] (listed as (20S)2M-trisP) it was “still possess activity”. The “inhibition of SCD-1 mRNA induction” value in data set [6] is listed as “increased slightly”; in data set [6] (listed as (20S)2M-trisP), “still possess activity”.

On to `C=C1[C@H](O)CC(=C/C=C2\CCC[C@]3(C)[C@@H](CCC)CC[C@@H]23)C[C@H]1O` [19,21-dinor, 2-methylene-19,21-dinor-1α-hydroxybishomopregnacalciferol], for which the “vitamin D receptor binding, times less active than 1α,25-dihydroxyvitamin D3” value in data set [1] (less active than 1α,25-dihydroxyvitamin D3) is reported as “about 5 times”. Moreover, in data set [7] (less active than 1α,25(OH)2D3), the “differentiation of HL-60 cells, times less active than 1α,25(OH)2D3” value is “about 15 times”. In addition, in data set [8], the “transcriptional activity in bone cells, compared to 1α,25(OH)2D3” value is given as “active”. The “intestinal calcium transport activity” value in data set [2] is reported as “no calcemic activity”. For the same compound, the “bone calcium mobilization activity” value in data set [3] was “no calcemic activity”. Besides, the “suppression of parathyroid hormone (PTH)” value in data set [9] was “significant activity”.

Regarding `C=C1[C@H](O)CC(=C/C=C2\CCC[C@]3(C)C(=C(C)C)CC[C@@H]23)C[C@H]1O` [VIT-I], in [1], the “binding … compared to 1α,25(OH)2D3” value is given as “bound equally well; also recorded: as well as the native hormone”. The “differentiation of HL-60 cells, compared to 1α,25(OH)2D3” value in data set [7] is given as “almost as potent”. The “transcriptional activity in bone cells, compared to 1α,25(OH)2D3” value in data set [8] is “about the same transcriptional activity”. Moreover, in data set [2], the “intestinal calcium transport activity” value is “very little activity; also recorded: less activity”. For the same compound, the “bone calcium mobilization activity” value in data set [3] is “very little bone calcium mobilization activity”. In addition, in data set [5], the “inhibition of differentiation of 3T3-L1 cells into mature adipocytes (Oil-Red-O staining)” value is given as “has activity” and the “inhibition of differentiation of MDI-treated 3T3-L1 cells (oil-red-O staining)” value is given as “active”. The “inhibition of SCD1 mRNA induction” value in [6] is reported as “active”.
